{
  "source": "patent US12590951B2",
  "about": "“Culture medium and culture method for primary cells of intestinal cancer” (PRECEDO PHARMACEUTICALS CO., LTD, priority 2021, dated 2026)",
  "key": {"[1]": {"system": "primary cells of intestinal cancer", "test": "Effect of different concentrations of factors in CA-1 medium on proliferation (ratio of cell number to Blank Control)", "type": "cell-based, human"}, "[2]": {"system": "primary cells of intestinal cancer", "test": "Effect of single additives in Basic Medium on proliferation of primary cells of intestinal cancer (cell count)", "type": "cell-based, human", "design": "key: +: compared with the Basic Medium, the medium added with the additive(s) has the effect of promoting the proliferation of primary cells of intestinal cancer isolated from intestinal cancer tissue in at least two cases; −: the medium added with the additive(s) has the effect of inhibiting the proliferation of primary cells of intestinal cancer isolated from intestinal cancer tissue in at least one case; ∘: the medium added with the additive(s) has no significant effect on the proliferation of primary cells of intestinal cancer isolated from intestinal cancer tissue in at least two cases", "description": "First, Basic Medium was prepared. The formulation of Basic Medium is: DMEM/F12 medium (purchased from Corning)+5 μM Y27632 (purchased from MCE)+5% (v/v) fetal bovine serum (purchased from Excell Bio)+100 μg/mL Primocin (purchased from InvivoGen, 0.2% (v/v), the concentration of commercial product is 50 mg/ml).\nDifferent types of additives (see Table 1) were added to the Basic Medium to prepare the culture mediums for primary cells of intestinal cancer containing different components.\nThe culture mediums of different components as shown in Table 1 were added into a 48-well plate at a volume of 1 mL/well. Primary cells of intestinal cancer isolated from two cases of intestinal cancer tissues (numbered OE0042 and OE(E)003) according to the above step (2) were inoculated into the 48-well culture plate at a cell density of 3×10^4 cells/well, and were cultured at 37° C., under 5% CO2 concentration. After culturing for 7-10 days, when the cells grew to 85%, the culture medium was discarded, and 100 μL/well of 0.05% trypsin (purchased from Gibco) was used to rinse the cells once. After the trypsin was removed, 200 μL of 0.05% trypsin was added to each well. The plate was then placed in a 37° C., 5% CO2 incubator for 10 minutes, and the cells were observed under a microscope (CNOPTEC, BDS400), showing that the cells had completely digested. 300 μL of DMEM/F12 medium containing 10% serum (Excell Bio, FND500) was added to stop the digestion. 20 μL of the resultant was added into a cell counting plate (Countstar, specification: 50 pieces/box), and the total number of cells was counted with a cell counter (Countstar, IC1000). Specifically, Basic Medium without any additives was used as an experimental control, and the experimental results are shown in Table 1."}, "[3]": {"conditions": "according to proliferation ratio vs Blank Control, FIGS. 2A-2J"}, "[4]": {"conditions": "additive at the final concentration in Basic Medium, samples OE0042 and OE(E)003, 7-10 days, compared with Basic Medium"}},
  "note": "Like-named read-outs stand apart in the source and are kept apart here.",
  "data": [
    {"molecule": "NC(=O)c1cccnc1", "note": "[nicotinamide, reference compound]", "values": [
      {"measurement": "amount in the culture medium, even more preferably", "setting": "[1]; [3]", "result": 4, "unit": "mM"},
      {"measurement": "amount in the culture medium, more preferably", "setting": "[1]; [3]", "result": "4 to 8", "unit": "mM"},
      {"measurement": "amount in the culture medium, preferably", "setting": "[1]; [3]", "result": "2 to 8", "unit": "mM"},
      {"measurement": "Level of promoting cell proliferation", "setting": "[2]; [4]", "result": "+"}
    ]},
    {"molecule": "insulin-like growth factor-1: medium additive, growth factor from R&D", "values": [
      {"measurement": "amount in culture medium, more preferably", "setting": "[1]; [3]", "result": 45, "unit": "ng/mL"},
      {"measurement": "amount in culture medium, preferably", "setting": "[1]; [3]", "result": "5 to 405", "unit": "ng/mL"},
      {"measurement": "Level of promoting cell proliferation", "setting": "[2]; [4]", "result": "+"}
    ]},
    {"molecule": "basic fibroblast growth factor: medium additive, growth factor from R&D", "values": [
      {"measurement": "Level of promoting cell proliferation", "setting": "[2]; [4]", "result": "−"}
    ]},
    {"molecule": "Cc1cccc(-c2nn(C(=S)Nc3ccccc3)cc2-c2ccnc3ccccc23)n1", "note": "[A8301, reference compound]", "values": [
      {"measurement": "amount in culture medium, more preferably", "setting": "[1]; [3]", "result": 200, "unit": "nM"},
      {"measurement": "Level of promoting cell proliferation", "setting": "[2]; [4]", "result": "−"}
    ]},
    {"molecule": "C[C@]12CCC(=O)C=C1CC[C@@H]1[C@@H]2[C@@H](O)C[C@@]2(C)[C@H]1CC[C@]2(O)C(=O)CO", "note": "[hydrocortisone, reference compound]", "values": [
      {"measurement": "Level of promoting cell proliferation", "setting": "[2]; [4]", "result": "∘"}
    ]},
    {"molecule": "NC(=O)CC[C@H](N)C(=O)O", "note": "[glutamine, reference compound]", "values": [
      {"measurement": "Level of promoting cell proliferation", "setting": "[2]; [4]", "result": "−"}
    ]},
    {"molecule": "epidermal growth factor: medium additive, growth factor from R&D (NSDSECPLSHDGYCLHDGVCMYIEALDKYACNCVVGYIGERCQYRDLKWWELR; Epidermal growth factor; UniProt P01133 971-1023, looked up)", "values": [
      {"measurement": "Level of promoting cell proliferation", "setting": "[2]; [4]", "result": "∘"}
    ]},
    {"molecule": "insulin: medium additive from Peprotech", "values": [
      {"measurement": "amount in culture medium, even more preferably", "setting": "[1]; [3]", "result": 2, "unit": "µg/mL"},
      {"measurement": "amount in culture medium, more preferably", "setting": "[1]; [3]", "result": "1000 to 2000", "unit": "ng/mL"},
      {"measurement": "amount in culture medium, preferably", "setting": "[1]; [3]", "result": "500 to 4000", "unit": "ng/mL"},
      {"measurement": "Level of promoting cell proliferation", "setting": "[2]; [4]", "result": "+"}
    ]},
    {"molecule": "cholera toxin", "values": [
      {"measurement": "amount in culture medium, even more preferably", "setting": "[1]", "result": 0.005, "unit": "µg/mL"},
      {"measurement": "Level of promoting cell proliferation", "setting": "[2]", "result": "+"}
    ]},
    {"molecule": "TGF-β1: medium additive from R&D", "values": [
      {"measurement": "Level of promoting cell proliferation", "setting": "[2]; [4]", "result": "−"}
    ]},
    {"molecule": "Oc1ccc(-c2nc(-c3ccncc3)c(-c3ccc(F)cc3)[nH]2)cc1", "note": "[SB202190, reference compound]", "values": [
      {"measurement": "Level of promoting cell proliferation", "setting": "[2]; [4]", "result": "∘"}
    ]},
    {"molecule": "C[C@@H](N)[C@H]1CC[C@H](C(=O)Nc2ccncc2)CC1", "note": "[Y-27632, reference compound]", "values": [
      {"measurement": "amount in culture medium, even more preferably", "setting": "[1]; [3]", "result": 5, "unit": "µM"},
      {"measurement": "amount in culture medium, preferably", "setting": "[1]; [3]", "result": "2.5 to 40", "unit": "µM"}
    ]},
    {"molecule": "hepatocyte growth factor: medium additive, growth factor from Peprotech", "values": [
      {"measurement": "Level of promoting cell proliferation", "setting": "[2]; [4]", "result": "∘"}
    ]},
    {"molecule": "CCCCC[C@H](O)/C=C/[C@H]1[C@H](O)CC(=O)[C@@H]1C/C=C\\CCCC(=O)O", "note": "[prostaglandin E2, reference compound]", "values": [
      {"measurement": "Level of promoting cell proliferation", "setting": "[2]; [4]", "result": "−"}
    ]}
  ]
}
